Source: patent US9180129B2, “Combination of lapatinib and trametinib” (NOVARTIS AG, priority 2010, dated 2015)
Where two headings read alike, the source gives them in different places.

Key:
KPL4 = experiment: Cell growth inhibition assay, KPL4 (breast HER2+); format: cell-based; settings: Homo sapiens, KPL4, 72 h, 3 days, read-out: Single agent IC50 (μM), mean ± STD
Protocol: All cells were cultured for a minimum of 72 hours prior to cell plating. […] Cells were incubated in the presence of compounds for 3 days.
Cell growth was calculated relative to vehicle (DMSO) treated control wells.
In general, a CI value <0.9, between 0.9 and 1.1, or >1.1 indicates synergy, additivity and antagonism, respectively. In general, the smaller the CI number, the greater is the strength of synergy.

HCC1954 = experiment: Cell growth inhibition assay, HCC1954 (breast HER2+); format: cell-based; settings: Homo sapiens, 72 h, 3 days, read-out: Single agent IC50 (μM), mean ± STD
Protocol: (§1) All lines were kept in a humidified incubator at 37° C. in 95% air and 5% CO2. JIMT-1 is a cell line established from a tumor of a patient with trastuzumab-resistant breast cancer (Tanner et al, Mol Cancer Ther 2004; 3:1585-92).
(§2) All cells were cultured for a minimum of 72 hours prior to cell plating. Cells were seeded in a 96-well tissue culture plate (NUNC 136102) of RPMI media containing 10% FBS for all cell lines at 2,000 cells per well except KPL4, which was plated in DMEM containing 5% FBS at 500 cells per well. […] Cells were incubated in the presence of compounds for 3 days. ATP levels were determined by adding Cell Titer Glo® reagent (Promega) according to the manufacturer's protocol. Briefly, Cell Titer Glo® reagent was added to each plate, incubated for 20 minutes then the luminescent signal was read on the SpectraMax L plate reader with a 0.5 sec integration time.
(§3) Inhibition of cell growth was estimated after treatment with compound or a combination of compounds for three days and comparing the signal to cells treated with vehicle (DMSO). Cell growth was calculated relative to vehicle (DMSO) treated control wells. […]

MDA-MB-453 = experiment: Cell growth inhibition assay, MDA-MB-453 (breast HER2+); format: cell-based; settings: Homo sapiens, 72 h, 3 days, read-out: Single agent IC50 (μM), mean ± STD
Protocol: as §1, §2, §3

BT474-J4 [1] = experiment: Cell growth inhibition assay, BT474-J4 (breast HER2+, acquired resistance to Compound A); format: cell-based; settings: Homo sapiens, 72 h, 3 days, read-out: Single agent IC50 (μM), mean ± STD
Protocol: as §1, §2, §3

JimT-1 = experiment: Cell growth inhibition assay, JimT-1 (breast HER2+, trastuzumab-resistant); format: cell-based, Human; settings: for IC50: Homo sapiens, 72 h, JimT-1, 3 days, read-out: Single agent IC50 (μM), mean ± STD; for sensitivity to cell growth inhibition, in words: JIMT-1 HER2+ breast cancer line
Protocol: as §1, §2
(§4) Inhibition of cell growth was estimated after treatment with compound or a combination of compounds for three days and comparing the signal to cells treated with vehicle (DMSO). Cell growth was calculated relative to vehicle (DMSO) treated control wells. A concentration of the compound that inhibits 50% of control cell growth (IC50) was interpolated using nonlinear regression with the equation, y=(A+(B−A)/(1+(C/x)^D)))), where A is the minimum response (ymin), B is the maximum response (ymax), C is the inflection point of the curve (EC50) and D is the Hill coefficient. […]

MDAMB175VII = experiment: Cell growth inhibition assay, MDAMB175VII (breast HER2−); format: cell-based; settings: Homo sapiens, MDA-MB-175-VII, 72 h, 3 days, read-out: Single agent IC50 (μM), mean ± STD
Protocol: as §1, §2, §3

SUM149 = experiment: Cell growth inhibition assay, SUM149 (breast HER2−); format: cell-based; settings: Homo sapiens, SUM149, 72 h, 3 days, read-out: Single agent IC50 (μM), mean ± STD
Protocol: as §1, §2, §3

NCI-H508 = experiment: Cell growth inhibition assay, NCI-H508 (colorectal); format: cell-based; settings: Homo sapiens, 72 h, 3 days, read-out: Single agent IC50 (μM), mean ± STD
Protocol: as §1, §2, §3

NCI-H747 = experiment: Cell growth inhibition assay, NCI-H747 (colorectal); format: cell-based; settings: Homo sapiens, 72 h, 3 days, read-out: Single agent IC50 (μM), mean ± STD
Protocol: as §1, §2, §3

T84 = experiment: Cell growth inhibition assay, T84 (colorectal); format: cell-based; settings: Homo sapiens, 72 h, 3 days, read-out: Single agent IC50 (μM), mean ± STD
Protocol: as §1, §2, §3

SW403 = experiment: Cell growth inhibition assay, SW403 (colorectal); format: cell-based; settings: Homo sapiens, SW-403, 72 h, 3 days, read-out: Single agent IC50 (μM), mean ± STD
Protocol: as §1, §2, §3

LS174T = experiment: Cell growth inhibition assay, LS174T (colorectal); format: cell-based; settings: Homo sapiens, 72 h, 3 days, read-out: Single agent IC50 (μM), mean ± STD
Protocol: as §1, §2, §3

CHL1 = experiment: Cell growth inhibition assay, CHL1 (melanoma); format: cell-based; settings: Homo sapiens, CHL-1, 72 h, 3 days, read-out: Single agent IC50 (μM), mean ± STD
Protocol: as §1, §2, §3

SKMEL5 = experiment: Cell growth inhibition assay, SKMEL5 (melanoma); format: cell-based, Human; settings: 3 days, read-out: Single agent IC50 (μM), mean ± STD
Protocol: as §1, §2, §4

A375 S2 = experiment: Cell growth inhibition assay, A375 S2 (melanoma); format: cell-based; settings: Homo sapiens, A375-S2, 72 h, 3 days, read-out: Single agent IC50 (μM), mean ± STD
Protocol: as §1, §2, §3

HPAF-11 = experiment: Cell growth inhibition assay, HPAF-11 (pancreatic); format: cell-based; settings: Homo sapiens, 72 h, 3 days, read-out: Single agent IC50 (μM), mean ± STD
Protocol: as §1, §2, §3

Capan-1 = experiment: Cell growth inhibition assay, Capan-1 (pancreatic); format: cell-based; settings: Homo sapiens, 72 h, 3 days, read-out: Single agent IC50 (μM), mean ± STD
Protocol: as §1, §2, §3

SUIT2 = experiment: Cell growth inhibition assay, SUIT2 (pancreatic); format: cell-based; settings: Homo sapiens, SUIT-2, 72 h, 3 days, read-out: Single agent IC50 (μM), mean ± STD
Protocol: as §1, §2, §3

BFTC-905 = experiment: Cell growth inhibition assay, BFTC-905 (bladder); format: cell-based; settings: Homo sapiens, 72 h, 3 days, read-out: Single agent IC50 (μM), mean ± STD
Protocol: as §1, §2, §3

SW780 = experiment: Cell growth inhibition assay, SW780 (bladder); format: cell-based; settings: Homo sapiens, 72 h, 3 days, read-out: Single agent IC50 (μM), mean ± STD
Protocol: as §1, §2, §3

647V = experiment: Cell growth inhibition assay, 647V (bladder); format: cell-based; settings: Homo sapiens, 72 h, 3 days, read-out: Single agent IC50 (μM), mean ± STD
Protocol: as §1, §2, §3

[2] = system: five colorectal cancer cell lines; experiment: Cell growth inhibition assay, colorectal lines; format: cell-based; settings: Homo sapiens; span over the five colorectal cancer cell lines of Table 1; read-out: IC50 values, single agent
[3] = system: three pancreatic cancer cell lines; experiment: Cell growth inhibition assay, pancreatic lines; format: cell-based, Human; settings: HPAF-11, Capan-1 and SUIT2
Protocol: as §1, §2, §3

BT474 [4] = experiment: Cell apoptosis assay, DNA fragmentation, BT474; format: cell-based, Human; settings: 48 hours, Roche Cell Death ELISA, combination at 2 to 1 molar ratio A:B (FIG. 2B)
Protocol: as §1
(§5) For investigation of the induction of apoptosis, cells were plated at 5,000 cells per well in a 96-well tissue culture plate and allowed to attach for approximately 24 hours. Forty-eight hours after treatment with compounds, levels of apoptosis were estimated using the Roche Cell Death ELISA kit (Cat. No. 11 774 425 001) following the instructions provided by the manufacturer.
(§6) FIG. 1. Dose response curves of cell growth inhibition in HCC1954, MDA-MB-175VII, CHL1 and BFTC-905.

HCC2218 = experiment: Cell growth inhibition assay, HCC2218 (breast HER2+); format: cell-based; settings: Homo sapiens, HCC2218, 72 h, 3 days, read-out: Single agent IC50 (μM), mean ± STD
Protocol: as §1, §2, §3

HCC1419 = experiment: Cell growth inhibition assay, HCC1419 (breast HER2+); format: cell-based; settings: Homo sapiens, HCC1419, 72 h, 3 days, read-out: Single agent IC50 (μM), mean ± STD
Protocol: as §1, §2, §3

AU565 = experiment: Cell growth inhibition assay, AU565 (breast HER2+); format: cell-based; settings: Homo sapiens, AU565, 72 h, 3 days, read-out: Single agent IC50 (μM), mean ± STD
Protocol: as §1, §2, §3

BT474 [5] = experiment: Cell growth inhibition assay, BT474 (breast HER2+); format: cell-based; settings: Homo sapiens, BT-474, 72 h, 3 days, read-out: Single agent IC50 (μM), mean ± STD
Protocol: as §1, §2, §3

SKBR3 = experiment: Cell growth inhibition assay, SKBR3 (breast HER2+); format: cell-based; settings: Homo sapiens, SK-BR-3, 72 h, 3 days, read-out: Single agent IC50 (μM), mean ± STD
Protocol: as §1, §2, §3

[6] = system: HER2 positive (HER2+) breast tumor lines; experiment: Cell growth inhibition assay, text summary over HER2+ breast lines; format: cell-based; settings: Homo sapiens; the HER2+ breast cancer lines listed in Table 1; read-out: IC50 as a single agent
Protocol: as §1, §2, §3

BT474-J4 [7] = experiment: Cell apoptosis assay, DNA fragmentation, BT474-J4; format: cell-based, Human; settings: 48 hours, Roche Cell Death ELISA, combination at 2 to 1 molar ratio A:B (FIG. 2B)
Protocol: as §1, §5, §6

Structure (SMILES) | IC50 (KPL4) | IC50 (HCC1954) | IC50 (MDA-MB-453) | IC50 (BT474-J4 [1]) | IC50 (JimT-1) | sensitivity to cell growth inhibition, in words (JimT-1) | IC50 (NCI-H508) | IC50 (NCI-H747) | IC50 (T84) | IC50 (SW403) | IC50 (LS174T) | IC50 (CHL1) | IC50 (SKMEL5; Homo sapiens, SK-MEL-5, 72 h) | IC50 (HPAF-11) | IC50 (Capan-1) | IC50 (SUIT2) | IC50 (BFTC-905) | IC50 (SW780) | IC50 (647V) | IC50 [2] | also measured
CS(=O)(=O)CCNCc1ccc(-c2ccc3ncnc(Nc4ccc(OCc5cccc(F)c5)c(Cl)c4)c3c2)o1 [Compound A, N-{3-Chloro-4-[(3-fluorobenzyl)oxy]phenyl}-6-[5-({[2-(methanesulphonyl)ethyl]amino}methyl)-2-furyl]-4-quinazolinamine] | < 1 µM | 2.41 ± 1.57 µM | 4.48 ± 1.47 µM | > 10 µM | > 10 µM | resistant | 0.149 ± 0.205 µM | 2.64 ± 1.75 µM | 4.28 ± 1.35 µM | 5.36 ± 1.55 µM | 7.18 ± 3.93 µM | 0.138 ± 0.004 µM | 4.74 ± 1.08 µM | 10.5 ± 2.77 µM | > 10 µM | > 10 µM | 4.28 ± 0.073 µM | 4.11 ± 1.39 µM | > 10 µM | 149 to 7180 nM | IC50 (MDAMB175VII): 0.146 ± 0.035 µM; IC50 (SUM149): 4.73 ± 1.37 µM; IC50 (A375 S2): > 10 µM; sensitivity as single agents, in words [3]: resistant; apoptosis induction determined by DNA fragmentation (BT474 [4]): induced apoptosis
CC(=O)Nc1cccc(-n2c(=O)n(C3CC3)c(=O)c3c(Nc4ccc(I)cc4F)n(C)c(=O)c(C)c32)c1 [Compound B, N-{3-[3-cyclopropyl-5-(2-fluoro-4-iodo-phenylamino)-6,8-dimethyl-2,4,7-trioxo-3,4,6,7-tetrahydro-2H-pyrido[4,3-d]pyrimidin-1-yl]phenyl}acetamide] | > 1 µM | > 1 µM | > 1 µM | > 1 µM | > 1 µM | resistant | 0.019 ± 0.005 µM | 0.003 ± 0.002 µM | 0.075 ± 0.039 µM | 0.005 ± 0.004 µM | 0.099 ± 0.053 µM | 0.461 ± 0.382 µM | ≤ 0.003 µM | 0.059 ± 0.03 µM | 0.086 ± 0.007 µM | 0.196 ± 0.269 µM | 0.012 ± 0.003 µM | 0.07 ± 0.042 µM | > 1 µM | 3 to 99 nM | IC50 (HCC2218): > 1 µM; IC50 (HCC1419): > 1 µM; IC50 (AU565): > 1 µM; IC50 (BT474 [5]): > 1 µM; IC50 (SKBR3): > 1 µM; IC50 (SKMEL5): 0.003 µM; IC50 [6]: > 1000 nM; sensitivity as single agents, in words [3]: sensitive; apoptosis induction determined by DNA fragmentation (BT474 [4]): not active to induce apoptosis; apoptosis induction determined by DNA fragmentation (BT474-J4 [7]): not active to induce apoptosis
